# Results published in ChEMBL document CHEMBL1128610, “Synthesis of potential -lactam antibiotics” (1995).
# Calls of active or inactive are those of the source. No cut-off for these calls is given here.
# Key:
# [1] = test system: Escherichia coli; assay: Compound was evaluated for antibacterial activity against Escherichia coli ATCC 25922; Inactive; assay type: functional, organism-based
# [2] = test system: Staphylococcus aureus; assay: Compound was evaluated for antibacterial activity against Staphylococcus aureus ATCC 29213; Inactive; assay type: functional, organism-based
# [3] = test system: Escherichia coli; assay: Minimum inhibitory concentration required for antibacterial activity against Escherichia coli ATCC 25922; assay type: functional
# [4] = test system: Staphylococcus aureus; assay: Minimum inhibitory concentration required for antibacterial activity against Staphylococcus aureus ATCC 29213; assay type: functional
SMILES,MIC [1],MIC [2],MIC [3],MIC [4]
CO/N=C(\C(=O)N[C@H]1CON(C(Oc2ccccc2)C(=O)O)C1=O)c1csc(N)n1 (stereo in doubt; 4c),inactive,inactive,,
CCOC(C(=O)[O-])N1OC[C@H](NC(=O)c2ccccc2)C1=O.[K+] (stereo partly specified),,,> 1000 µg/mL,> 1000 µg/mL
CO/N=C(\C(=O)N[C@H]1CON(C(Oc2ccccc2)C(=O)O)C1=O)c1csc(N)n1 (stereo in doubt; 4b),inactive,inactive,,
CO/N=C(\C(=O)N[C@H]1CON(C(Oc2ccc(Cl)cc2)C(=O)O)C1=O)c1csc(N)n1 (stereo in doubt; 4f),inactive,inactive,,
CO/N=C(\C(=O)N[C@H]1CON(C(Oc2ccc(F)cc2)C(=O)O)C1=O)c1csc(N)n1 (stereo in doubt; 4e),inactive,inactive,,
O=C(COc1ccccc1)N[C@H]1CON(S(=O)(=O)[O-])C1=O.[K+],,,> 500 µg/mL,> 500 µg/mL
CO/N=C(\C(=O)N[C@H]1CON(C(Oc2ccc(F)cc2)C(=O)O)C1=O)c1csc(N)n1 (stereo in doubt; 4d),inactive,inactive,,
CO/N=C(\C(=O)N[C@H]1CON(C(Oc2ccc(Cl)cc2)C(=O)O)C1=O)c1csc(N)n1 (stereo in doubt; 4g),inactive,inactive,,
